How the values were obtained:
A549 [1] = experiment: Ratio of IC50 for human A549 cells to IC50 for human A549 cells in presence of beta-D-glucuronidase; type: functional
A549 [2] = experiment: Cytotoxicity against human A549 cells after 24 hrs visualized by Lofflers methylene blue by colony forming assay in presence of beta-D-glucuronidase; type: functional, cell-based
A549 [3] = experiment: Cytotoxicity against human A549 cells after 24 hrs visualized by Lofflers methylene blue by colony forming assay; type: functional, cell-based

Compound | Ratio IC50 (A549 [1]) | IC50 (A549 [2]) [nM] | IC50 (A549 [3]) [nM]
COC(=O)[C@H]1O[C@@H](Oc2cc3c(c4ccccc24)[C@H]([C@@H](C)Cl)CN3C(=O)c2cc3cc(OCCN(C)C)ccc3[nH]2)[C@H](O)[C@@H](O)[C@@H]1O | 1600 | 2.1 | 3300
C[C@@H](Cl)[C@@H]1CN(C(=O)c2cc3cc(OCCN(C)C)ccc3[nH]2)c2cc(O[C@@H]3O[C@H](C(=O)O)[C@@H](O)[C@H](O)[C@H]3O)c3ccccc3c21 | 700 | 0.9 | 610

— ChEMBL document CHEMBL1150780, “Duocarmycin-based prodrugs for cancer prodrug monotherapy” (Bioorg Med Chem, 2008)
